Test results as given in publication PMC12590356, “Novel pyrrolo[2,1-a]isoquinoline aryl ketones attenuate carbon nanotube-induced acute lung injury through NF-κB pathway inhibition” (RSC Advances, 2025).

System: PPAR-δ
Assay: not given
Parameters: method as in PMID 22489042
Settings: cited from earlier work
For CC(C)(Oc1ccc(C(=O)c2ccc(Cl)cc2)cc1)C(=O)O [Fenofibric acid], the EC50 is given as […].

System: PPAR-γ
Assay: not given
Parameters: method as in PMID 22489042
Settings: cited from earlier work
In the case of CC(C)(Oc1ccc(C(=O)c2ccc(Cl)cc2)cc1)C(=O)O [Fenofibric acid], the EC50 is given as […].

System: COX-1
Assay: not given
Parameters: method as in PMID 32358780, PMID 30243628
Settings: cited from earlier work
In the case of CC(C(=O)O)c1cccc(C(=O)c2ccccc2)c1 (stereo not shown) [Ketoprofen], the IC50 is listed as 0.002 µM.

System: LPS-induced NO production in RAW 264.7 cells
Assay: LPS-induced NO production (Griess reagent)
Assay type: cell-based, murine
Parameters: NO inhibition rate: dose or concentration left out as unconfirmed; key to Inhibition of LPS-induced NO production, result in words (na / tox): na: no activity at the concentration of 40 μM; toxicity
Settings: Griess reagent, means ± SD (n = 3)
Description: Despite extensive research efforts focused on the treatment ALI, no specific drugs have been identified thus far. In the quest to discover innovative anti-inflammatory drugs for ALI treatment, we assessed the anti-inflammatory potential of pyrrolo[2,1-a]isoquinoline aryl ketones were evaluated through their capacity to suppress LPS-induced NO release in RAW264.7 cells.[21,28] Griess reagent was used to quantify the levels of LPS-induced NO release in RAW264.7 cells following treatment with the synthesized compounds.
The quantification of NO production in activated RAW264.7 cells was achieved by measuring the concentration of nitrite, which serves as a stable oxidative metabolite of NO, employing a previously established protocol.[37] RAW264.7 cells were cultured overnight in 48-well plates at a cellular density of 5 × 10^4 cells per milliliter. […] Briefly, Griess reagents I and II were mixed with 50 μL of the culture medium supernatant, and the resultant mixture was analyzed spectrophotometrically at a wavelength of 540 nm using an automated microplate reader. The NO inhibition rate was calculated using the following formula: NO inhibition rate = [(OD540 − compound OD540)/(OD540 − blank OD540)] × 100%.
For CC(C)(C)OC(=O)c1ccc2c3ccccc3ccn12 [3b], the NO inhibition rate was 42.0 ± 4.2%. With N#Cc1ccc2c3ccccc3ccn12 [3c] the NO inhibition rate was 46.9 ± 1.8%. For O=C(c1ccccc1)c1ccc2c3ccccc3ccn12 [3d], the NO inhibition rate was 48.0 ± 1.3%. For O=C(c1ccc(Cl)cc1)c1ccc2c3ccccc3ccn12 [3h], the NO inhibition rate was 39.6 ± 5.3%. O=C(c1ccccc1Cl)c1ccc2c3ccccc3ccn12 [3l] gave an NO inhibition rate of 38.2 ± 5.1%. With Cc1cccc(C(=O)c2ccc3c4ccccc4ccn23)c1 [3n] the NO inhibition rate was 46.8 ± 3.1%. Compound O=C(c1cccc(Cl)c1)c1ccc2c3ccccc3ccn12 [3o] has an NO inhibition rate of 39.2 ± 7.1%.

Same assay, conditions: Mus musculus, RAW264.7, LPS 500 ng/mL 24 h, Griess reagent, means ± SD (n = 3), read-out: IC50, inhibition of LPS-induced NO production
In the case of COC(=O)c1ccc2c3ccccc3ccn12 [3a], the IC50 is reported as 19.9 ± 0.71 µM. C=C(C)[C@@H]1CC[C@]2(C(=O)O)CC[C@]3(C)[C@H](CC[C@@H]4[C@@]5(C)CC[C@H](O)C(C)(C)[C@@H]5CC[C@]43C)[C@@H]12 [Betulinic acid, reference compound] showed an IC50 of 11.9 ± 1.3 µM.

Same assay, conditions: na at 40 μM
With Cc1ccc(C(=O)c2ccc3c4ccccc4ccn23)cc1 [3f] the “Inhibition of LPS-induced NO production, result in words (na / tox)” value was “tox”. In the case of O=C(c1ccccc1O)c1ccc2c3ccccc3ccn12 [3m], the “Inhibition of LPS-induced NO production, result in words (na / tox)” value is reported as “tox”.

System: COX-2
Assay: not given
Settings: read-out: IC50, COX-2 inhibitory activity; cited from earlier work
For CC(C)(Oc1ccc(C(=O)c2ccc(Cl)cc2)cc1)C(=O)O [Fenofibric acid], the IC50 is given as 0.048 µM.

Same assay, conditions: read-out: IC50 for COX-2; cited from earlier work
In the case of CC(C(=O)O)c1cccc(C(=O)c2ccccc2)c1 (stereo not shown) [Ketoprofen], the IC50 is listed as 0.026 µM.

System: PPAR-α
Assay: not given
Parameters: method as in PMID 22489042
Settings: cited from earlier work
In the case of CC(C)(Oc1ccc(C(=O)c2ccc(Cl)cc2)cc1)C(=O)O [Fenofibric acid], the EC50 is given as […].

System: not listed separately
Assay: CCK8 cell viability (cytotoxicity) assay
Assay type: cell-based, murine
Settings: mouse, RAW264.7 cells, means ± SD (n = 3)
Description: The toxic effect of synthesized compounds was evaluated on RAW264.7 cells utilizing a CCK8 assay kit.
RAW264.7 cells were seeded in 96-well plates and incubated with various compounds, each at a uniform concentration of 50 μM, for 24 h. Following this incubation, CCK8 was added to the 96-well plates and incubated at 37 °C for 1 h. The control group was cultivated solely in fresh medium. The absorbance at 450 nm was quantified using an enzyme marker.
For COC(=O)c1ccc2c3ccccc3ccn12 [3a], the viability at 24 h, 50 µM was 92.4 ± 6.3%. With CC(C)(C)OC(=O)c1ccc2c3ccccc3ccn12 [3b] the viability at 24 h, 50 µM was 95.6 ± 2.9%. With N#Cc1ccc2c3ccccc3ccn12 [3c] the viability at 24 h, 50 µM was 97.1 ± 2.6%. In the case of O=C(c1ccccc1)c1ccc2c3ccccc3ccn12 [3d], the viability at 24 h, 50 µM is reported as 96.8 ± 6.6%. Compound COc1ccc(C(=O)c2ccc3c4ccccc4ccn23)cc1 [3e] has a viability at 24 h, 50 µM of 88.7 ± 5.8%. Cc1ccc(C(=O)c2ccc3c4ccccc4ccn23)cc1 [3f] showed a viability at 24 h, 50 µM of 53.6 ± 6.4%. O=C(c1ccc(Cl)cc1)c1ccc2c3ccccc3ccn12 [3h] gave a viability at 24 h, 50 µM of 101 ± 3%. With O=C(c1ccc(Br)cc1)c1ccc2c3ccccc3ccn12 [3i] the viability at 24 h, 50 µM was 95.9 ± 7.7%. Work on O=C(c1ccc(C(F)(F)F)cc1)c1ccc2c3ccccc3ccn12 [3j] yielded a viability at 24 h, 50 µM of 89.9 ± 5.6%. O=C(c1ccccc1Cl)c1ccc2c3ccccc3ccn12 [3l] gave a viability at 24 h, 50 µM of 99.3 ± 8.8%. Work on O=C(c1ccccc1O)c1ccc2c3ccccc3ccn12 [3m] yielded a viability at 24 h, 50 µM of 46.4 ± 6.5%. O=C(c1cccc(Cl)c1)c1ccc2c3ccccc3ccn12 [3o] showed a viability at 24 h, 50 µM of 91.5 ± 8.5%. O=C(c1ccc2ccccc2c1)c1ccc2c3ccccc3ccn12 [3p] gave a viability at 24 h, 50 µM of 93.2 ± 4.7%. For C=C(C)[C@@H]1CC[C@]2(C(=O)O)CC[C@]3(C)[C@H](CC[C@@H]4[C@@]5(C)CC[C@H](O)C(C)(C)[C@@H]5CC[C@]43C)[C@@H]12 [Betulinic acid, reference compound], the viability at 24 h, 50 µM was 85.8 ± 7.4%.
